US8722731B2, “Furanyl compounds and the use thereof” (NovoMedix, LLC, priority 2010, dated 2014)
Read-outs that look alike come from different tables or passages of the source.

Tests used:
[1] = system: triple negative breast cancer cell line MDA-MB-468; experiment: IC50 cell-based assay, adherent cells, MDA-MB-468; settings: Homo sapiens
Description: (§1) In one embodiment, the IC50s of the compounds provided herein were determined in cell-based assays using adherent cells. In one embodiment, the activity of the compounds provided herein were determined in a cell-based assay using the triple negative breast cancer cell line MDA-MB-468. In one embodiment, the adherent cells used in the cell-based assays may be a cell type selected from Table 1. In one embodiment, the cell-based assay may be carried out as provided herein. On day 0, cells were seeded at 20,000 cells per well in 100 µL of media into individual wells of a 96-well tissue culture plate. The next day, compounds were diluted to twice the desired final concentration and added in 100 µL of media for a final volume of 200 μL. Standard solutions for each compound were prepared at 1000× concentration in DMSO. The highest concentration was 30 mM. Serial 1:1 dilutions were made from there for a 6- or 9-point curve (e.g., 30 mM, 15 mM, 7.5 mM, etc). Compounds were then diluted 1:500 in media, and 100 µL of the resulting solution was added to each well for a final dilution of 1:1000. Each concentration of compound was tested in triplicate. Cells were incubated at 37° C. with 5% CO2. After 72 hours, 20 μL of CellTiter 96 Aqueous One Solution Cell Proliferation Assay (Promega) was added to each well. Cells were placed back in the incubator, and the absorbance at 490 nm was read after 2-3 hours. The concentration of compound that decreased the number of metabolically active cells by 50% was determined and reported as the IC50. “Percent Viability” was determined by subtracting the average background value (media only) and expressed as a ratio to the average value obtained from cells treated with only DMSO.
The IC50s of the compounds provided herein were determined in cell-based assay using triple negative breast cancer cell line MDA-MB-468.

[2] = system: SK-MEL-28; experiment: IC50 cell-based assay, adherent cells, SK-MEL-28; settings: Homo sapiens, Melanoma, 72 hours, read-out: IC50 of Compounds in Adherent Cell Types
Description: as §1

[3] = system: MHH-CALL-4; experiment: IC50 cell-based assay, suspension cells, MHH-CALL-4; settings: MHHCALL4, Leukemia, B-ALL (CRLF2 Hi), read-out: IC50 of Compounds in Suspension Cell Types
Description: as §1
(§2) In one embodiment, the IC50s of the compounds provided herein were determined in cell-based assays using suspension cells. In one embodiment, the activity of the compounds provided herein were determined in a cell-based assay using the JeKo-1 cell line (mantle cell lymphoma) or the Pfeiffer cell line (diffuse large B-cell lymphoma). In one embodiment, the suspension cells used in the cell-based assays may be a cell type selected from Table 2. Assays with suspension cells were similar except that 40,000-60,000 cells were added to each well and compounds were added immediately after cell plating.

[4] = system: Nalm-6-VR; experiment: IC50 cell-based assay, suspension cells, Nalm-6-VR; settings: Leukemia, B-ALL, Vincristine resistant, read-out: IC50 of Compounds in Suspension Cell Types
Description: as §1, §2

[5] = system: RT-4; experiment: IC50 cell-based assay, adherent cells, RT-4; settings: Homo sapiens, Bladder, papilloma, 72 hours, read-out: IC50 of Compounds in Adherent Cell Types
Description: as §1

[6] = system: Nalm-6; experiment: IC50 cell-based assay, suspension cells, Nalm-6; settings: Homo sapiens, Leukemia, B-ALL, read-out: IC50 of Compounds in Suspension Cell Types
Description: as §1, §2

[7] = system: Pfeiffer; experiment: IC50 cell-based assay, suspension cells, Pfeiffer; settings: Homo sapiens, Lymphoma, Diffuse large b-cell, read-out: IC50 of Compounds in Suspension Cell Types
Description: as §1, §2

[8] = system: SKBR-3; experiment: IC50 cell-based assay, adherent cells, SKBR-3; settings: Homo sapiens, SK-BR-3, Breast, ER−, 72 hours, read-out: IC50 of Compounds in Adherent Cell Types
Description: as §1

[9] = system: HL-60; experiment: IC50 cell-based assay, suspension cells, HL-60; settings: Homo sapiens, Leukemia, AML, read-out: IC50 of Compounds in Suspension Cell Types
Description: as §1, §2

[10] = system: FaDu; experiment: IC50 cell-based assay, adherent cells, FaDu; settings: Homo sapiens, Pharynx, squamous cell, 72 hours, read-out: IC50 of Compounds in Adherent Cell Types
Description: as §1

[11] = system: A431; experiment: IC50 cell-based assay, adherent cells, A431; settings: Homo sapiens, A-431, Skin, epidermoid carcinoma, 72 hours, read-out: IC50 of Compounds in Adherent Cell Types
Description: as §1

[12] = system: Hep-G2; experiment: IC50 cell-based assay, adherent cells, Hep-G2; settings: Homo sapiens, HepG2, Liver, hepatocellular carcinoma, 72 hours, read-out: IC50 of Compounds in Adherent Cell Types
Description: as §1

[13] = system: Kg1a; experiment: IC50 cell-based assay, suspension cells, Kg1a; settings: Homo sapiens, KG-1a, Leukemia, AML, read-out: IC50 of Compounds in Suspension Cell Types
Description: as §1, §2

[14] = system: Panc-1; experiment: IC50 cell-based assay, adherent cells, Panc-1; settings: Homo sapiens, Pancreas, epitheloid carcinoma, 72 hours, read-out: IC50 of Compounds in Adherent Cell Types
Description: as §1

[15] = system: HT-29; experiment: IC50 cell-based assay, adherent cells, HT-29; settings: Homo sapiens, Colorectal, adenocarcinoma, 72 hours, read-out: IC50 of Compounds in Adherent Cell Types
Description: as §1

[16] = system: MDA-MB-361; experiment: IC50 cell-based assay, adherent cells, MDA-MB-361; settings: Homo sapiens, Breast, Brain met Her2-neu + ER +, 72 hours, read-out: IC50 of Compounds in Adherent Cell Types
Description: as §1

[17] = system: U87-MG; experiment: IC50 cell-based assay, adherent cells, U87-MG; settings: Homo sapiens, U-87 MG, Brain, glioblastoma, 72 hours, read-out: IC50 of Compounds in Adherent Cell Types
Description: as §1

[18] = system: H-460; experiment: IC50 cell-based assay, adherent cells, H-460; settings: Homo sapiens, NCI-H460, Lung, large cell carcinoma, 72 hours, read-out: IC50 of Compounds in Adherent Cell Types
Description: as §1

[19] = system: AsPC-1; experiment: IC50 cell-based assay, adherent cells, AsPC-1; settings: Homo sapiens, ASPC1, Pancreas, carcinoma, 72 hours, read-out: IC50 of Compounds in Adherent Cell Types
Description: as §1

[20] = system: A549; experiment: IC50 cell-based assay, adherent cells, A549; settings: Homo sapiens, Lung, NSCLC, 72 hours, read-out: IC50 of Compounds in Adherent Cell Types
Description: as §1

[21] = system: MCF-7; experiment: IC50 cell-based assay, adherent cells, MCF-7; settings: Homo sapiens, MCF7, Breast, ER+, 72 hours, read-out: IC50 of Compounds in Adherent Cell Types
Description: as §1

[22] = system: MDA-MB-231; experiment: IC50 cell-based assay, adherent cells, MDA-MB-231; settings: Homo sapiens, Breast, triple neg, 72 hours, read-out: IC50 of Compounds in Adherent Cell Types
Description: as §1

[23] = system: OVCAR-3; experiment: IC50 cell-based assay, adherent cells, OVCAR-3; settings: Homo sapiens, Ovarian, adenocarcinoma, 72 hours, read-out: IC50 of Compounds in Adherent Cell Types
Description: as §1

[24] = system: 1937; experiment: IC50 cell-based assay, adherent cells, 1937; settings: Breast, triple neg, 72 hours, read-out: IC50 of Compounds in Adherent Cell Types
Description: as §1

[25] = system: Z138, JeKo-1; experiment: IC50 cell-based assay, suspension cells, Z138, JeKo-1; settings: Lymphoma, Mantle cell, read-out: IC50 of Compounds in Suspension Cell Types
Description: as §1, §2

[26] = system: Caki-1; experiment: IC50 cell-based assay, adherent cells, Caki-1; settings: Homo sapiens, Kidney, clear cell carc., skin met, 72 hours, read-out: IC50 of Compounds in Adherent Cell Types
Description: as §1

[27] = system: SupB15; experiment: IC50 cell-based assay, suspension cells, SupB15; settings: Homo sapiens, SUP-B15, Leukemia, B-ALL (Philadelphia chromosome+), read-out: IC50 of Compounds in Suspension Cell Types
Description: as §1, §2

[28] = MDA-MB-468, Breast, triple neg, 72 hours, Table 1, read-out: IC50 of Compounds in Adherent Cell Types
[29] = MDA-MB-468 cells, Table 3, read-out: IC50 of Compounds in MDA-MB-468 Cells

Row | Compound | IC50 [1, 28] [µM] | IC50 [1, 29] [µM] | IC50 [2] [µM] | IC50 [3] [µM] | IC50 [4] [µM] | IC50 [5] [µM] | IC50 [6] [µM] | IC50 [7] [µM] | IC50 [8] [µM] | IC50 [9] [µM] | IC50 [10] [µM] | IC50 [11] [µM] | IC50 [13] [µM] | IC50 [14] [µM] | IC50 [16] [µM] | IC50 [21] [µM] | IC50 [22] [µM] | IC50 [24] [µM] | IC50 [25] [µM] | IC50 [27] [µM] | other results
1 | O=C(Nc1cc(C(F)(F)F)cc(C(F)(F)F)c1)c1cc(-c2ccc(Br)cc2)oc1C(F)(F)F [Compound 3, 5-(4-Bromophenyl)-N-(3,5-bistrifluoromethylphenyl)-2-trifluoromethylfuran-3-carboxamide] | < 5 | 1.5 | 5 to 10 | < 5 | < 5 | > 20 | 5 to 10 | < 5 | < 5 | < 5 | < 5 | 5 to 10 | < 5 | 5 to 10 | < 5 | 5 to 10 | 5 to 10 | < 5 | < 5 | < 5 | IC50 [12]: 5 to 10 µM; IC50 [15]: 10 to 20 µM; IC50 [17]: 5 to 10 µM; IC50 [18]: 10 to 20 µM; IC50 [19]: 5 to 10 µM; IC50 [20]: < 5 µM; IC50 [23]: < 5 µM; IC50 [26]: 5 to 10 µM
2 | Cc1oc(-c2ccccc2)cc1C(=O)Nc1cc(C(F)(F)F)cc(C(F)(F)F)c1 [Compound 4, 2-Methyl-5-phenyl-furan-3-carboxylic acid (3,5-bis-trifluoromethyl-phenyl)-amide] | 10 to 20 | > 30 | – | > 20 | – | – | > 20 | > 20 | > 20 | > 20 | – | – | > 20 | > 20 | > 20 | > 20 | > 20 | > 20 | > 20 | > 20 | –
3 | O=C(Nc1cc(F)cc(C(F)(F)F)c1)c1cc(-c2ccc(Cl)cc2)oc1C(F)(F)F [Compound 5, 5-(4-Chloro-phenyl)-2-trifluoromethyl-furan-3-carboxylic acid (3-fluoro-5-trifluoromethyl-phenyl)-amide] | < 5 | 4 | 5 to 10 | 5 to 10 | < 5 | > 20 | < 5 | 5 to 10 | < 5 | < 5 | 5 to 10 | > 20 | 5 to 10 | < 5 | 10 to 20 | < 5 | 5 to 10 | 5 to 10 | < 5 | < 5 | IC50 [12]: 10 to 20 µM; IC50 [15]: > 20 µM; IC50 [17]: 10 to 20 µM; IC50 [18]: > 20 µM; IC50 [19]: 5 to 10 µM; IC50 [20]: 5 to 10 µM; IC50 [23]: 5 to 10 µM; IC50 [26]: 5 to 10 µM
4 | O=C(Nc1cc(F)cc(C(F)(F)F)c1)c1cc(-c2ccc(Br)cc2)oc1C(F)(F)F [Compound 7, 5-(4-Bromo-phenyl)-2-trifluoromethyl-furan-3-carboxylic acid (3-fluoro-5-trifluoromethyl-phenyl)-amide] | < 5 | 5 | 10 to 20 | 10 to 20 | 10 to 20 | > 20 | 5 to 10 | 10 to 20 | 5 to 10 | 5 to 10 | 5 to 10 | 10 to 20 | 10 to 20 | > 20 | > 20 | 5 to 10 | 10 to 20 | 5 to 10 | 5 to 10 | 5 to 10 | IC50 [12]: 10 to 20 µM; IC50 [15]: > 20 µM; IC50 [17]: > 20 µM; IC50 [18]: > 20 µM; IC50 [19]: 10 to 20 µM; IC50 [20]: > 20 µM; IC50 [23]: 5 to 10 µM
5 | COc1ccc(-c2cc(C(=O)Nc3cc(C(F)(F)F)cc(C(F)(F)F)c3)c(C(F)(F)F)o2)cc1 [Compound 8, 5-(4-Methoxy-phenyl)-2-trifluoromethyl-furan-3-carboxylic acid (3,5-bis-trifluoromethyl-phenyl)-amide] | < 5 | 2 | – | – | – | – | < 5 | – | – | – | – | – | – | – | – | – | – | – | – | – | –
